The IC50 is the concentration needed to halve the response being measured. One may read the Km as the concentration of substrate that gives half-maximal velocity.

The values below come from paper PMC8379015, “Resistance of Mycobacterium tuberculosis to indole 4-carboxamides occurs through alterations in drug metabolism and tryptophan biosynthesis” (Cell Chemical Biology, 2021).

One series deals with T1, TrpAB β reaction (Mycobacterium tuberculosis, UniProt P9WFX9+P9WFY1).
T1 construct: His6 (N); made in house; host or cells: E. coli BL21(DE3)
T1 sequence (P9WFX9 whole entry): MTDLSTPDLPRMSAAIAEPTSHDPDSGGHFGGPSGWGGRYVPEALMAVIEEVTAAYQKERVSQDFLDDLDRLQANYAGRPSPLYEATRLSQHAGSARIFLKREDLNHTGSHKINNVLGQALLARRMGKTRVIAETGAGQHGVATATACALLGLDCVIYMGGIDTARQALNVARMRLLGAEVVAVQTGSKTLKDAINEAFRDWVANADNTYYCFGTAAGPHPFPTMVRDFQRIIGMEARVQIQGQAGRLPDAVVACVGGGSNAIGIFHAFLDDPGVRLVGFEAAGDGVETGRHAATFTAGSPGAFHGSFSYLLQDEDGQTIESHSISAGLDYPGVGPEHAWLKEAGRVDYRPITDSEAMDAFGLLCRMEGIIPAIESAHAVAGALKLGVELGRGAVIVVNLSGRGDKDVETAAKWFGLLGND
T1 sequence (P9WFY1 whole entry): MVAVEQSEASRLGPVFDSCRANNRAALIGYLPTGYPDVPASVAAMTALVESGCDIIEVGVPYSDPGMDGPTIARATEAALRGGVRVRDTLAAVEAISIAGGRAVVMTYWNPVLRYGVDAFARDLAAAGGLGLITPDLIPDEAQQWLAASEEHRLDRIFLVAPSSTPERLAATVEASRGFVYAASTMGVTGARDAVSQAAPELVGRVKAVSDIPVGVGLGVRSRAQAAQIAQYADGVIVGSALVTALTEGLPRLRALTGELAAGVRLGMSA
The series is described as follows: biochemical. Format: biochemical.

The target in another series is T2, TrpAB α reaction (Mycobacterium tuberculosis, UniProt P9WFX9+P9WFY1).
T2 construct: His6 (N); made in house; host or cells: E. coli BL21(DE3)
T2 sequence (P9WFX9 whole entry): as the sequence (P9WFX9 whole entry) above
T2 sequence (P9WFY1 whole entry): as the sequence (P9WFY1 whole entry) above
The series is described as follows: biochemical.

The test system of the next series is Mtb. Format: cell-based, Mycobacterium tuberculosis.
A further series has as its system M. tuberculosis H37Rv. Put plainly: microbe, parasite or virus in culture. Format: cell-based. Particulars: Mycobacterium tuberculosis.
In a further series the test system is TrpE. Details: method as in Negatu et al., 2019. Particulars: ref Negatu et al., 2019; read-out: IC50 TrpE (allosteric inhibition); cited from earlier work.
The next series concerns M. smegmatis mc2155. Put plainly: microbe, parasite or virus in culture. The class given is cell-based, Mycobacterium smegmatis. Particulars: for MIC: Mycolicibacterium smegmatis, MC2155, read-out: MIC vs M. smegmatis mc2155.
The subject of a further series is M. bovis BCG. The series is described as follows: microbe, parasite or virus in culture. Format: cell-based, Mycobacterium bovis BCG.
Another series has as its target T3, TrpAB WT (Mycobacterium tuberculosis, UniProt P9WFX9+P9WFY1).
T3 construct: His6 (N); made in house; host or cells: E. coli BL21(DE3)
Format: biochemical.

The subject of series [1] is intracellular Mtb H37Rv in J774 macrophages. The class given is cell-based, Mycobacterium tuberculosis.
The next series relates to J774 macrophages. The settings on record: 24 hrs, CellTiter-Glo. A general note: Cellular ATP, detected with luciferase, serves as a proxy for viable cell number.
The next series deals with T4, TrpE WT (Mycobacterium tuberculosis, UniProt P9WFX3).
T4 construct: His6 (N); made in house; host or cells: E. coli BL21(DE3)
T4 sequence (P9WFX3 1-516): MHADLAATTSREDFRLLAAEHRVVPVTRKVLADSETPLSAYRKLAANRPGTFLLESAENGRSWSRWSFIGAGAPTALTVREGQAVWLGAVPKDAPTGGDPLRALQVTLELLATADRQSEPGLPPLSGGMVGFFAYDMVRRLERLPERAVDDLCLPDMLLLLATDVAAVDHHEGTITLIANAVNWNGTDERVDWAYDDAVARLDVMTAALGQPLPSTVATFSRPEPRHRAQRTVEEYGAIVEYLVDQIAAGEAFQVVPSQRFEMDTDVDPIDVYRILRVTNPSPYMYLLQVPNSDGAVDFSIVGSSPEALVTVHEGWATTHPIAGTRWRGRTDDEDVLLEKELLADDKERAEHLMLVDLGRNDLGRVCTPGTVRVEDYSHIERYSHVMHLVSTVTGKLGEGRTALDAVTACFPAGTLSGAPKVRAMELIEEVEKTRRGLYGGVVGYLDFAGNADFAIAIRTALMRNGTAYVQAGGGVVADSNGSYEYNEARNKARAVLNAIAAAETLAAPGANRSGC
The class given is biochemical.

In brackets after ≈: the same amount, converted by molar mass. Like-named read-outs stand apart in the source and are kept apart here. Some results are limits rather than exact numbers.

T3 sequence (P9WFX9 whole entry): as the sequence (P9WFX9 whole entry) above
T3 sequence (P9WFY1 whole entry): as the sequence (P9WFY1 whole entry) above

For `Nc1cccc2[nH]ccc12` [4-AI, 4-aminoindole, reference compound], the concentration for half-maximal inhibition (IC50) at TrpAB β reaction was 649.4 ± 2.5 µM; at TrpAB α reaction, 631 ± 174 µM. Further, in the series with Mtb, the “increase of MIC on supplementation” value is recorded as 4- to 16 fold. Also, the MIC against M. tuberculosis H37Rv and in the series on M. tuberculosis H37Rv (read-out: MIC against Mtb) was 4.68 µM (≈ 0.619 µg/mL) throughout.

As to `Nc1cccc2[nH]cc(C[C@H](N)C(=O)O)c12` [4-aTrp, 4-amino-L-tryptophan], in the series with M. tuberculosis H37Rv (read-out: MIC against Mtb), the MIC was above 100 µM.

As to `N[C@@H](Cc1c[nH]c2ccc(F)cc12)C(=O)O` [5-fluorotryptophan], the IC50 in the series on TrpE was 4 µM.

Consider `O=C(O)c1ccc(OCC(F)(F)F)nc1` [C1-COOH, 6-(2,2,2-trifluoroethoxy)nicotinic acid], for which the MIC against M. tuberculosis H37Rv was 50 µM (≈ 11.1 µg/mL).

Consider `O=C(COc1ccccc1)Nc1cccc2[nH]ccc12` [C2, N-(1H-indol-4-yl)-2-phenoxyacetamide], for which the MIC with M. smegmatis mc2155 was above 100 µM.

Consider `O=C(O)COc1ccccc1` [C2-COOH, 2-phenoxyacetic acid], for which the MIC in the series on M. tuberculosis H37Rv is above 100 µM.

For `O=C(Nc1cccc2[nH]ccc12)C1CCCCC1` [C3, N-(1H-indol-4-yl)cyclohexanecarboxamide], the MIC in the series on M. smegmatis mc2155 is above 100 µM; in the series on M. bovis BCG (Mycobacterium tuberculosis variant bovis BCG, BCG, read-out: MIC vs M. bovis BCG) it was above 100 µM; in the series with M. tuberculosis H37Rv (read-out: MIC) it was 12.5 µM (≈ 3.03 µg/mL). Besides, in the series with M. bovis BCG, the “MIC vs M. bovis BCG” value is 50 µM (≈ 12.1 µg/mL).

The molecule `O=C(O)C1CCCCC1` [C3-COOH, cyclohexanecarboxylic acid] registered an MIC against M. tuberculosis H37Rv above 100 µM.

In the case of `O=C(Nc1cccc2[nH]ccc12)c1ccc(OCC(F)(F)F)cn1` [C4, N-(1H-indol-4-yl)-5-(2,2,2-trifluoroethoxy)picolinamide], the MIC in the series on M. smegmatis mc2155 is above 100 µM.

Regarding `O=C(O)c1ccc(OCC(F)(F)F)cn1` [C4-COOH, 5-(2,2,2-trifluoroethoxy)picolinic acid], the MIC with M. tuberculosis H37Rv is above 100 µM.

For the molecule `CNS(=O)(=O)c1ccc2c(c1)CCN2C(=O)c1ccc(C)s1` [C5, reference compound], the results for the IC50 on TrpAB β reaction and against TrpAB α reaction were 0.37 ± 0.07 µM and 0.1 ± 0.06 µM, respectively. Moreover, the “potency with exogenous indole or L-Trp” value with Mtb was “significantly attenuated”. Also, the MIC in the series with M. tuberculosis H37Rv (read-out: MIC) amounted to 0.39 µM (≈ 0.131 µg/mL).

`O=C(Nc1ccc2[nH]ccc2c1)c1ccc(OCC(F)(F)F)nc1` [C6, N-(1H-indol-5-yl)-6-(2,2,2-trifluoroethoxy)nicotinamide] came in with an MIC against M. tuberculosis H37Rv of 50 µM (≈ 16.8 µg/mL).

Regarding `O=C(Nc1ccc2cc[nH]c2c1)c1ccc(OCC(F)(F)F)nc1` [C7, N-(1H-indol-6-yl)-6-(2,2,2-trifluoroethoxy)nicotinamide], the MIC against M. tuberculosis H37Rv was 50 µM (≈ 16.8 µg/mL).

The molecule `O=C(Nc1cccc2cc[nH]c12)c1ccc(OCC(F)(F)F)nc1` [C8, N-(1H-indol-7-yl)-6-(2,2,2-trifluoroethoxy)nicotinamide] yielded an MIC with M. tuberculosis H37Rv of 9.4 µM (≈ 3.15 µg/mL).

Molecule `Cn1ccc2c(NC(=O)c3ccc(OCC(F)(F)F)nc3)cccc21` [C9, N-(1-methyl-1H-indol-4-yl)-6-(2,2,2-trifluoroethoxy)nicotinamide] yielded an MIC in the series with M. tuberculosis H37Rv of 50 µM (≈ 17.5 µg/mL).

As to `FC(F)(F)COc1ccc(CNc2cccc3[nH]ccc23)cn1` [C10, N-((6-(2,2,2-trifluoroethoxy)pyridin-3-yl)methyl)-1H-indol-4-amine], in the series with M. tuberculosis H37Rv, the MIC came out at 50 µM (≈ 16.1 µg/mL).

In the series on M. tuberculosis H37Rv, `O=C(Nc1ccc(OCC(F)(F)F)nc1)c1cccc2[nH]ccc12` [C11, N-(6-(2,2,2-trifluoroethoxy)pyridine-3-yl)-1H-indole-4-carboxamide] registered an MIC of 50 µM (≈ 16.8 µg/mL).

Molecule `O=C(Nc1cccc2c1CCN2)c1ccc(OCC(F)(F)F)nc1` [C12, N-(indolin-4-yl)-6-(2,2,2-trifluoroethoxy)nicotinamide] displayed an MIC against M. tuberculosis H37Rv of 50 µM (≈ 16.9 µg/mL).

Take `CN(C(=O)c1ccc(OCC(F)(F)F)nc1)c1cccc2[nH]ccc12` [C13, N-(1H-indol-4-yl)-N-methyl-6-(2,2,2-trifluoroethoxy)nicotinamide]: in the series with M. tuberculosis H37Rv (read-out: MIC), the MIC worked out at 25 µM (≈ 8.73 µg/mL).

Regarding `O=C(Nc1cccc2[nH]cnc12)c1ccc(OCC(F)(F)F)cn1` [C14, N-(1H-benzo[d]imidazol-4-yl)-5-(2,2,2-trifluoroethoxy)picolinamide], in the series with M. tuberculosis H37Rv (read-out: MIC), the MIC came to 50 µM (≈ 16.8 µg/mL).

Consider `O=C(Nc1ccnc2[nH]ccc12)c1ccc(OCC(F)(F)F)cn1` [C15, N-(1H-pyrrolo[2,3-b]pyridin-4-yl)-5-(2,2,2-trifluoroethoxy)picolinamide], for which the MIC in the series on M. tuberculosis H37Rv (read-out: MIC) amounted to 50 µM (≈ 16.8 µg/mL).

With `O=C(Nc1cccc2[nH]ccc12)c1ccc(OCC(F)(F)F)nn1` [C16, N-(1H-indol-4-yl)-6-(2,2,2-trifluoroethoxy)pyridazine-3-carboxamide], in the series with M. tuberculosis H37Rv (read-out: MIC), the MIC amounted to 2.3 µM (≈ 0.773 µg/mL).

As for `Cc1ccc(OCC(=O)Nc2cccc3[nH]ccc23)cc1` [C17, N-(1H-indol-4-yl)-2-(p-tolyloxy)acetamide], in the series with M. tuberculosis H37Rv (read-out: MIC), the MIC turned out to be 1.56 µM (≈ 0.437 µg/mL).

On to `O=C(COCC1CC1)Nc1cccc2[nH]ccc12` [C18, 2-(cyclopropylmethoxy)-N-(1H-indol-4-yl)acetamide], for which the MIC in the series with M. tuberculosis H37Rv (read-out: MIC) came out at 3.13 µM (≈ 0.765 µg/mL).

As to `O=C(Nc1cccc2[nH]ccc12)[C@H]1C[C@@H](Oc2ccccc2)C1` [C19, (1s,3s)-N-(1H-indol-4-yl)-3-phenoxycyclobutane-1-carboxamide], the MIC with M. tuberculosis H37Rv (read-out: MIC) came to 3.13 µM (≈ 0.959 µg/mL).

With `CN(CC(F)(F)F)c1ccc(C(=O)Nc2cccc3[nH]ccc23)cn1` [C20, N-(1H-indol-4-yl)-6-(methyl(2,2,2-trifluoroethyl)amino)nicotinamide], in the series on M. tuberculosis H37Rv (read-out: MIC), the MIC was determined as 4.7 µM (≈ 1.64 µg/mL).

Consider `Cc1ccc(C(=O)Nc2cccc3[nH]ccc23)o1` [C21, N-(1H-indol-4-yl)-5-methylfuran-2-carboxamide], for which the MIC with M. tuberculosis H37Rv (read-out: MIC) was 6.25 µM (≈ 1.5 µg/mL).

For the molecule `O=P(O)(O)OC[C@@H](O)[C@H](O)c1c[nH]c2ccccc12` [IGP, indole-3-glycerol phosphate], the Km at TrpAB WT (read-out: apparent KM IGP) was 76.9 ± 1.1 µM.

On to `NNC(=O)c1ccncc1` [INH, isoniazid, reference compound], for which the MIC in the series on M. tuberculosis H37Rv (read-out: MIC) was found to be 0.16 µM (≈ 0.0219 µg/mL).

In the case of `N[C@@H](CO)C(=O)O` [L-Ser, L-serine], the Km at TrpAB WT (read-out: apparent KM L-Ser) was determined as 550 ± 230 µM; on TrpAB β reaction (read-out: KM L-Ser of TrpAB β-half reaction), 2900 ± 300 µM.

Turning to “N-(1H-indol-4-yl)-6-(2,2,2-trifluoroethoxy)nicotinamide [C1]”, in [1], the “reduction in intracellular Mtb titer” value is recorded as 1.5 log. Moreover, the “MIC vs M. smegmatis mc2155” value against M. smegmatis mc2155 is above 100 µM. Besides, in the series on J774 macrophages, the “toxicity to J774 macrophages” value is “not toxic”. In addition, on TrpE WT, 242 ± 53 µM corresponded to half-maximal inhibition (IC50).
